Laboratory results: US20060074243A1, “Hydroxamic acid and amide compounds and their use as protease inhibitors” (Pharmacia Corporation, priority 2002, published 2006)

Columns and labels:
Assay in all cases: In vitro MMP inhibition analysis (fluorogenic peptide substrate cleavage), Ki
Format in all cases: biochemical
Settings in all cases: Table 2
Human recombinant MMP-9 = target: T1, Human recombinant MMP-9 (Homo sapiens, UniProt P14780)
T1 construct: made in house; host or cells: MMP-9-transfected HT1080 cells (spent media)
Description: (§1) Several compounds and salts were analyzed in an in vitro assay to determine their ability to inhibit the MMP cleavage of peptide substrates. Inhibition constant (Ki) were calculated from the assayed compound-MMP interactions.
(§2) Human recombinant MMP-1, MMP-2, MMP-9, MMP-13, and MMP-14 were used in this assay. All enzymes were prepared in Assignee's laboratories following usual laboratory procedures. Protocols for the preparation and use of these enzymes are available in the scientific literature. See, e.g., Enzyme Nomenclature (Academic Press, San Diego, Calif., 1992) (and the citations therein). See also, Frije et al., J. Biol. Chem., 26(24), 16766-73 (1994).
The MMP-9 proenzyme was purified by gelatin Sepharose chromatography from spent media of MMP-9-transfected HT1080 cells provided by Dr. Howard Welgus of Washington University (St. Louis, Mo.).
(§3) All MMPs were activated using 4-aminophenylmercuric acetate (“APMA”, Sigma Chemical, St. Louis, Mo.) or trypsin. MMP-9 also was activated using human recombinant MMP-3 (purified in Assignee's laboratory following standard cloning and purification techniques).
(§4) The following fluorogenic, methoxycoumarin-containing polypeptide substrate (I) was used in the MMP inhibition assays: MCA-ArgProLeuGlyLeuDpaAlaArgGluArgNH2 (I) “MCA” is 7-methoxycoumarin-4-yl acetyl. Substrate (I) was prepared Assignee's laboratory. In the absence of MMP inhibitory activity, the substrate is cleaved at the Gly-Leu peptide bond. This cleavage separates the highly fluorogenic peptide from the 2,4-dinitrophenyl quencher, thus resulting in increase of fluorescent intensity.
(§5) The stock solutions of the assayed compounds and salts were prepared in […] (DMSO). These stock solutions were diluted in Buffer A (100 mM Tris-HCl, 100 mM NaCl, 10 mM CaCl2, 0.05% polyoxyethylene 23 lauryl ether, pH 7.5) to obtain solutions with different compound concentrations, i.e., assay solutions with different concentrations of the assayed […] compound. The experiment controls contained the same amount of Buffer A/DMSO as the assayed sample, but contained none of the tested compound or salt.
(§6) The assays from which the Ki determinations were made were performed as follows. The assayed compound samples were incubated in separate wells of untreated white polystyrene plates (Nunc Nalgene International, Rochester, N.Y.), and analyzed on a Tecan SpectraFlour Plus plate reader. The excitation wavelength was 330 nm, and the emission wavelength—420 nm. All samples (assayed compounds and controls) were incubated in separate plate wells at room temperature for 1 hr in the presence of 4 μM of MMP substrate (I). In the absence of MMP inhibitory activity, substrate (I) was cleaved at the Gly-Leu bond resulting in an increase of relative fluorescence. Inhibition was observed as a reduced rate of this increase in relative fluorescence. […] This protocol is a modification of method by Knight et al., FEBS Lett., 296(3), 263-266 (1992). Apparent inhibitory constants were determined by non-linear regression of reaction velocity as a function of inhibitor and enzyme concentration using Morrison's equation, as described by Kuzmic, Anal. Biochem. 286, 45-50 (2000). Modifications were made in the non-linear regression method to allow a common control reaction rate and effective enzyme concentration to be shared between all dose-response relationships on a given assay plate. Since the substrate concentration was chosen to be at or below the Km, the apparent Ki's from this analysis were reported as Ki's without correction for the influence of substrate.
(§7) The above protocols were used to determine Ki constants for the compounds in Examples 2-35 above. All Ki values in Table 1 are given in nM units.

Human recombinant MMP-14 = target: T2, Human recombinant MMP-14 (Homo sapiens, UniProt P50281)
T2 construct: The catalytic domain enzyme was expressed in E. coli inclusion bodies, solubilized in urea; made in house
Description: as §1, §2
The MMP-14 full length cDNA was provided by Dr. Gregory Goldberg of Washington University (St. Louis, Mo.). The catalytic domain enzyme was expressed in E. coli inclusion bodies, solubilized in urea, purified on a preparative […] reverse phase HPLC column, and then refolded in the presence of zinc acetate and purified for use.
as §3, §4, §5, §6, §7

Human recombinant MMP-1 = target: T3, Human recombinant MMP-1 (Homo sapiens, UniProt P03956)
T3 construct: made in house; host or cells: MMP-1-transfected HT-1080 cells (spent media)
T3 sequence (P03956 100-469): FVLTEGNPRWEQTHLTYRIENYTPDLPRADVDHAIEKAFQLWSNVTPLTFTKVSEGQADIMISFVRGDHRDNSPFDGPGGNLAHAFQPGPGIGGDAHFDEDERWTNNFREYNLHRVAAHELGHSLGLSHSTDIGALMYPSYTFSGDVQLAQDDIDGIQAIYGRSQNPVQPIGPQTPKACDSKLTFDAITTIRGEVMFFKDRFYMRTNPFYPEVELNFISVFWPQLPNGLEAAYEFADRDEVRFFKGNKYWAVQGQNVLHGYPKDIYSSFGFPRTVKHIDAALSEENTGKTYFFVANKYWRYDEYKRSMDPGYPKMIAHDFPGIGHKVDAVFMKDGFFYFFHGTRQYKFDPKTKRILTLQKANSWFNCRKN
Description: as §1, §2
The MMP-1 proenzyme was purified from the spent media of MMP-1-transfected HT-1080 cells provided by Dr. Harold Welgus of Washington University (St. Louis, Mo.). The protein was purified on a zinc chelating column.
as §3, §4, §5, §6, §7

Human recombinant MMP-2 = target: T4, Human recombinant MMP-2 (Homo sapiens, UniProt P08253)
T4 construct: made in house; host or cells: MMP-2-transfected p2AHT2 cells
T4 sequence (P08253 110-660): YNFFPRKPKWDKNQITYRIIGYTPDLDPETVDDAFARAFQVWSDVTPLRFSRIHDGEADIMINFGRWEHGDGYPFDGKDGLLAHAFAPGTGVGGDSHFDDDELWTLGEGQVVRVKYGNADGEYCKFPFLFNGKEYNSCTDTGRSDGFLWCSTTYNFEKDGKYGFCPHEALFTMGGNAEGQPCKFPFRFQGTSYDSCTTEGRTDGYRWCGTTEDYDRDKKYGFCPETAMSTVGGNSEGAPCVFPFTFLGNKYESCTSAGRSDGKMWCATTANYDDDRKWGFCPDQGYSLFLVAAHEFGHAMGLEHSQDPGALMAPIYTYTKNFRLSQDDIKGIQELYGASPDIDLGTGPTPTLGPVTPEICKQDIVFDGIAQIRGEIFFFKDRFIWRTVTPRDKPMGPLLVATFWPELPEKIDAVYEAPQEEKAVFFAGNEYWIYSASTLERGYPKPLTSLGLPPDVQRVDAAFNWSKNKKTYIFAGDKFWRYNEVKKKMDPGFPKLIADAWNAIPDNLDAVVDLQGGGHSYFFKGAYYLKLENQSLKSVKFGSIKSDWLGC
Description: as §1, §2
The MMP-2 proenzyme was purified by gelatin Sepharose chromatography from MMP-2-transfected p2AHT2 cells provided by Dr. Gregory Goldberg of Washington University (St. Louis, Mo.).
as §3, §4, §5, §6, §7

T1 sequence (P14780 107-707 limits assumed): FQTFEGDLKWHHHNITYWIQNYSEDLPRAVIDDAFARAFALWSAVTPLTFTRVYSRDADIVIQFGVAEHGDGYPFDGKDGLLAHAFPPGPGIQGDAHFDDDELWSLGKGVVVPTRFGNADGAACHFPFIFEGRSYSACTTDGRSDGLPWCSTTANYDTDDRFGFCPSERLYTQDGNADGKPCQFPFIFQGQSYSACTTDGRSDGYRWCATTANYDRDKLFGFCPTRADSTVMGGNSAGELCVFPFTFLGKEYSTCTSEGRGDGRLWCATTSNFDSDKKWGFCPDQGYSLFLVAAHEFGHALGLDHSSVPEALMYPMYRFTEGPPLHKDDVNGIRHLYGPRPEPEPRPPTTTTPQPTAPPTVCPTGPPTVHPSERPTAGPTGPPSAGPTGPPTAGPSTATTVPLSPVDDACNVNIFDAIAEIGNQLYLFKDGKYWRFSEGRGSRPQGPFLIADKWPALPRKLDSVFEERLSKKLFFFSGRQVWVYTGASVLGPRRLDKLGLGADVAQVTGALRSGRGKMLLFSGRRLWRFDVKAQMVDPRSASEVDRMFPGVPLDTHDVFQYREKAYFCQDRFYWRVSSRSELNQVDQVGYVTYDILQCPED

Ki (Human recombinant MMP-9) [nM] | Ki (Human recombinant MMP-14) [nM] | Ki (Human recombinant MMP-1) [nM] | Ki (Human recombinant MMP-2) [nM] | SMILES
8.56 | 745 | 4410 | 0.94 | O=C(NO)C1(S(=O)(=O)c2ccc(-c3ccc(CCC4CCCCC4)cn3)cc2)CCOCC1 [Example 129]
12.8 | > 1250 | > 1250 | 14.2 | CC(C)(C)CCNc1cnc(-c2ccc(S(=O)(=O)C3(C(=O)NO)CCOCC3)cc2)cn1 [Example 130]
5.3 | 6240 | > 10000 | 0.89 | O=C(NO)C1(S(=O)(=O)c2ccc(-c3cnc(N4CCCCC4)cn3)cc2)CCOCC1 [Example 131]
298 | 3170 | > 10000 | 153 | O=C(NO)C1(S(=O)(=O)c2ccc(-c3cscc3-c3ccc(F)cc3)cc2)CCOCC1 [Example 132]
35.2 | 4150 | 7400 | 11.9 | O=C(NO)C1(S(=O)(=O)c2ccc(-c3ccc(CCC(F)(C(F)(F)F)C(F)(F)F)cn3)cc2)CCOCC1 [Example 133]
5.25 | 67.1 | 5910 | 1.13 | O=C(NO)C1(S(=O)(=O)c2ccc(-c3noc(-c4ccc(F)cc4)n3)cc2)CCOCC1 [Example 134]
9.95 | 1010 | > 10000 | 4.22 | CCN1CCC(C(=O)NO)(S(=O)(=O)c2ccc(-c3ccc(Oc4ccccc4)cc3)cc2)CC1 [Example 135]
0.418 | 308 | 1070 | 0.074 | CCN1CCC(C(=O)NO)(S(=O)(=O)c2ccc(-c3ccc(-c4ccncc4)cc3)cc2)CC1 [Example 136]
1.15 | 2870 | > 10000 | 2.72 | O=C(NO)C1(S(=O)(=O)c2ccc(-c3ncc(CCC(F)(F)C(F)(F)F)cn3)cc2)CCOCC1 [Example 137]
1.04 | 1110 | > 10000 | 0.218 | O=C(NO)C1(S(=O)(=O)c2ccc(-c3cnc(N4CCCC4)cn3)cc2)CCOCC1 [Example 138]
6.23 | > 10000 | > 10000 | 9 | CCCCc1ccc(-c2ccc(S(=O)(=O)C3(C(=O)NO)CCN(CC)CC3)cc2)cn1 [Example 139]
0.127 | 604 | > 10000 | 0.176 | CCCCc1ccc(-c2ccc(S(=O)(=O)C3(C(=O)NO)CCN(CC)CC3)cc2)nc1 [Example 140]
0.198 | 79.4 | 257 | 0.041 | O=C(NO)C1(S(=O)(=O)c2ccc(-c3ccc(-c4ccncc4)cc3)cc2)CCOCC1 [Example 141]
76.6 | > 10000 | > 10000 | 53.7 | O=C(NO)C1(S(=O)(=O)c2ccc(-c3cnc(CCC(F)(F)C(F)(F)F)nc3)cc2)CCOCC1 [Example 142]
1.13 | 187 | 481 | 0.037 | O=C(NO)C1(S(=O)(=O)c2ccc(-c3ccc(OCCCC(F)(F)F)cn3)cc2)CCOCC1 [Example 144]
6.62 | 560 | 3390 | 0.72 | O=C(NO)C1(S(=O)(=O)c2ccc(-c3ccc(-c4ccc(OC(F)(F)F)cc4)cn3)cc2)CCN(C2CC2)CC1 [Example 145]
0.48 | 1050 | 1240 | 0.3 | CN1CCC(C(=O)NO)(S(=O)(=O)c2ccc(-c3ccc(OC(F)(F)C(F)F)cc3)cc2)CC1 [Example 146]
7.09 | 139 | > 10000 | 1.75 | CCN1CCC(C(=O)NO)(S(=O)(=O)c2ccc(-c3noc(-c4ccc(F)cc4)n3)cc2)CC1 [Example 147]
39.3 | 1020 | > 10000 | 7.26 | CCN1CCC(C(=O)NO)(S(=O)(=O)c2ccc(-c3noc(-c4ccncc4)n3)cc2)CC1 [Example 148]
5.18 | 117 | > 10000 | 0.76 | CCN1CCC(C(=O)NO)(S(=O)(=O)c2ccc(-c3noc(-c4ccc(C(F)(F)F)cc4)n3)cc2)CC1 [Example 149]
0.47 | 307 | 1500 | 0.37 | O=C(NO)C1(S(=O)(=O)c2ccc(-c3ccc(-c4ccccc4F)cn3)cc2)CCN(C2CC2)CC1 [Example 150]
0.09 | 120 | 391 | 0.15 | O=C(NO)C1(S(=O)(=O)c2ccc(-c3ccc(-c4ccccc4)cn3)cc2)CCN(C2CC2)CC1 [Example 151]
0.09 | 144 | 842 | 0.1 | COCCN1CCC(C(=O)NO)(S(=O)(=O)c2ccc(-c3ccc(-c4ccccc4)cc3)cc2)CC1 [Example 152]
0.18 | 205 | 1310 | 0.26 | O=C(NO)C1(S(=O)(=O)c2ccc(-c3ccc(-c4ccccc4)cc3)cc2)CCN(C2CC2)CC1 [Example 153]
0.34 | 493 | 1840 | 0.13 | O=C(NO)C1(S(=O)(=O)c2ccc(-c3cnc(OCC(F)(F)C(F)(F)F)cn3)cc2)CCOCC1 [Example 154]
0.44 | 283 | 3860 | 0.66 | CCN1CCC(C(=O)NO)(S(=O)(=O)c2ccc(-c3ccc(-c4csc(C)n4)cc3)cc2)CC1 [Example 155]
